Test results reported in patent US20220364056A1, “SHORT-CHAIN FATTY ACID PENTANOATE AS ENHANCER FOR CELLULAR THERAPY AND ANTI-TUMOR THERAPY” (PHILIPPS-UNIVERSITÄT MARBURG, priority 2019, published 2022).

Assays:
[1] = tested on: human CD8+ T lymphocytes; assay: human CD8+ T lymphocytes differentiated into CTLs, flow cytometry; type: cell-based; conditions: healthy donors
Procedure: (A and B) CD8^+ T cells isolated from spleens and LNs were polarized under Tc17-inducing conditions and treated with pentanoate for 3 days. Representative contour plots (A) and bar graphs (B) indicate the frequency of IL-17^+ and IFN-γ+ cells. Three similar experiments were performed. (C and D) CD8^+ T cells isolated from spleens and LNs were polarized under Tc9-inducing conditions and treated with pentanoate for 3 days. Representative contour plots (C) and bar graphs (D) are showing the frequency of IL-9^+ and IFN-γ+ cells. Three similar experiments were performed. (E and F) The expression of granzyme B, IFN-γ and Eomes in pentanoate-treated human CTLs was analysed by flow cytometry. Five independent experiments were performed (E). For Eomes, mean fluorescence intensity (MFI) values are shown (F, n=3).
(A) CD8^+ T cells isolated from peripheral blood of healthy donors were differentiated into CTLs in presence or absence of indicated HDACi. Representative contour plots and dot plots indicate the frequency of TNF-α+ and IFN-γ^+ cells. Data points in the graphs represent individual donors (n=4, performed in 4 independent experiments) (B-G) Phenotyping of pentanoate-treated ROR1-specific CD8^+ CAR T cells (CARROR1 T cells). (B) Experimental setup for the functional analysis is shown. (C) The cytokine secretion (IFN-γ and TNF-α) was analysed in supernatants of pentanoate-treated CARROR1 T cells by ELISA. (D) The surface expression of CD25 was measured by flow cytometry. (E) The secretion of IL-2 was detected in supernatants of CARROR1 T cells by ELISA. (F) Proliferation of CARROR1 T cells was determined by CFSE labelling. CARROR1 T cells pre-treated with pentanoate were stained with CFSE and subsequently co-cultured with […] cells in the absence of pentanoate. CD8^+ T cells without the CAR construct were used as mock control cells. […] The percentage of lysed target cells was determined in 1 hour intervals (effector-to-target cell (E:T) ratio=2.5:1). […]

[2] = tested on: mTOR; assay: phosphorylation of mTOR and S6 in human CTLs; type: cell-based; conditions: three days
Procedure: (A and B) CTLs were cultured in medium containing 1.0% FCS and treated with pentanoate (2.5 mM) for three days. Representative histogram plots and bar graphs indicate the phoshorylated levels of mTOR (A) and S6 ribosomal protein (B), respectively (n=3 pooled from three independent experiments). (C and D) Human CTLs were cultured in medium containing 1.0% serum and treated with indicated HDACi for three days. Representative histogram plots and bar graphs indicate the phoshorylated levels of mTOR (C) and S6 ribosomal protein (D), respectively (data points represent four individual healthy donors) (E) Measurement of extracellular acidification rate (ECAR) for in vitro generated murine CTLs cultured with or without 2.5 mM pentanoate for three days. ECAR was measured under basal conditions and in response to glucose (10 mM), oligomycin (2 μM), and 2-deoxy-glucose (2-DG, 100 mM). One of three independent experiments is shown.

[3] = tested on: CD8+ cytotoxic T lymphocytes (CTLs); assay: murine CTLs cultivated under suboptimal conditions with SCFAs; cytokines and effector molecules by flow cytometry and ELISA; type: cell-based
Description: It is known that the glycolytic metabolic pathway promotes IFN-γ expression and T cell effector function. […] We next investigated if acetylation of H4 was increased at CTL-characteristic loci (Ifnγ, Tbx21 and Eomes) after treatment of CTLs with pentanoate. […] Due to the high level of heterogeneity and plasticity within T lymphocytes, we next investigated possible effects of pentanoate on other CD8^+ T cell subtypes. […] To gain further insight into possible therapeutic strategies, we next investigated the impact of pentanoate on human CD8^+ T lymphocytes.
(§1) (A) Experimental design for the treatment of CTLs with the water-soluble fraction of intestinal content derived from SPF or GF mice. (B and C) Frequencies of IFN-γ- and TNF-α-producing CTLs treated with the extract from luminal content derived from indicated organs. Representative results of two experiments are shown (n=3). (D) ELISA was performed to measure the secretion of TNF-α by CLTs treated as shown in (A). (E) Quantitative measurement of total SCFA amounts in fecal samples of SPF and GF mice (n=5). (F and G) The percentage of IFN-γ^+ TNF-α^+ CTLs treated with the indicated SCFAs for three days (n=3, one of three independent experiments is shown). (H) The secretion of TNF-α from CTLs treated with SCFAs was determined by ELISA (n=3, one of two independent experiments is shown). (I) The fluorogenic HDAC assay was applied to measure the HDAC inhibitory activity of SCFAs on CTLs. The value for unstimulated CTLs was arbitrarily set to 1.0. Four independent experiments were performed. (J and K) Representative contour plots (J) and bar graphs (K) showing the frequency of IFN-γ+ and TNF-α+ cells after pentanoate (2 mM) or VPA (0.5 mM) administration. Three similar experiments were performed. (L and M) The frequency of Eomes- and T-bet-expressing CTLs treated with pentanoate (2 mM) or VPA (0.5 mM) for three days was analyzed by flow cytometry (n=4). (N) ChIP assay showing the acetylation of histone H4 at the promoter regions of Ifnγ and Eomes genes after 24 hours of treatment of CTLs with pentanoate. Data are from pooled chromatin of three mice.
Representative histogram plots (A) and bar graphs (B) are showing the frequency of Annexin V^+ cells. Three similar experiments were performed. (C) Representative effector molecule staining of CD8^+ T cells polarized under suboptimal CTL-inducing conditions, treated with pentanoate or TSA (10 nM Sigma-Aldrich) in presence of 2-DG (1 mM, Sigma-Aldrich) or rapamycin (100 nM, Sigma-Aldrich) for 3 days. Three independent experiments were performed. (D) Western blot analysis of H3Ac and H4Ac in CD8^+ T cells treated with SCFAs for 3 days. (E) Pan-H4Ac ChIP qPCR analysis for Tbx21 promoter accessibility in pentanoate-treated CTLs. Data are from pooled chromatin of three mice. (F and G) CD8^+ T cells isolated from WT and Tbx21^−/− mice were polarized under suboptimal CTL-inducing conditions in presence of increasing pentanoate concentrations. Representative contour plots (F) and bar graphs (G) show the frequency of IFN-γ+ and IL-17A^+ cells. Two similar experiments were performed. […]

[4] = tested on: class I HDAC isoforms; assay: HDAC inhibition of recombinant class I HDAC isoforms; type: biochemical; conditions: cell-free supernatants vs YCFA medium; TSA as control
[5] = tested on: class II HDACs (HDAC4, HDAC5, HDAC6 and HDAC9); assay: HDAC inhibition of recombinant class II HDAC isoforms; type: biochemical
Procedure: (A) The production of SCFAs, branched-chain fatty acids (BCFAs) and medium-chain fatty acids (MCFAs) by 16 human commensals was measured by GC-MS. All bacteria were grown in vitro until stationary growth phase before the measurement of fatty acids in supernatants. (B and C) HDAC inhibition of recombinant class I and class II HDAC isoforms by cell-free supernatants derived from 16 members of human commensal community. Significance was tested against YCFA medium. (D) Impact of bacterial SCFAs, BCFAs and MSCFAs on the activity of class I and II HDAC enzymes. TSA was used as a control pan-HDAC inhibitor.

[6] = tested on: HDAC; assay: fluorogenic HDAC assay on CTL-derived cell lysates; type: biochemical, murine; conditions: unstimulated CTLs set to 1.0
Procedure: as §1, with “(N) ChIP assay showing the acetylation of histone H4 at the promoter regions of Ifnγ and Eomes genes after 24 hours of treatment of CTLs with pentanoate. Data are from pooled chromatin of three mice.” left out

[7] = tested on: histones H3 and H4; assay: Western blot of H3Ac and H4Ac in CD8+ T cells; type: cell-based, murine; conditions: SCFAs for 3 days
Procedure: Representative histogram plots (A) and bar graphs (B) are showing the frequency of Annexin V^+ cells. Three similar experiments were performed. (C) Representative effector molecule staining of CD8^+ T cells polarized under suboptimal CTL-inducing conditions, treated with pentanoate or TSA (10 nM Sigma-Aldrich) in presence of 2-DG (1 mM, Sigma-Aldrich) or rapamycin (100 nM, Sigma-Aldrich) for 3 days. Three independent experiments were performed. (D) Western blot analysis of H3Ac and H4Ac in CD8^+ T cells treated with SCFAs for 3 days. (E) Pan-H4Ac ChIP qPCR analysis for Tbx21 promoter accessibility in pentanoate-treated CTLs. Data are from pooled chromatin of three mice. (F and G) CD8^+ T cells isolated from WT and Tbx21^−/− mice were polarized under suboptimal CTL-inducing conditions in presence of increasing pentanoate concentrations. Representative contour plots (F) and bar graphs (G) show the frequency of IFN-γ+ and IL-17A^+ cells. Two similar experiments were performed.

With Nc1ccccc1NC(=O)c1ccc(CNc2nccc(-c3cccnc3)n2)cc1 [mocetinostat, reference compound] the “expression of TNF-α and IFN-γ” value [1] was “promoted the similar effects” and the “phosphorylation level of S6 ribosomal protein” value [2] was “neither mocetinostat (HDAC class I inhibitor MGCD0103) nor TMP 195 (HDAC class II inhibitor) had a significant effect”.
For CC(/C=C/C(=O)NO)=C\[C@@H](C)C(=O)c1ccc(N(C)C)cc1 [TSA, trichostatin A, reference compound], the “reversal of the effect on granzyme B+IFN-γ+ cells by rapamycin” value ([3]; rapamycin 100 nM co-treatment) was “could not be reversed”, the “percentages of granzyme B+IFN-γ+ CD8+ T cells” value ([3]; vs control CTLs, TSA 10 nM, 3 days) was “substantially enhanced” and the “activity of class I HDAC isoforms” value [4] was “inhibited”. The “activity of class II HDACs” value [5] was “inhibited”.
With O=CC[C@@H](O)[C@H](O)[C@H](O)CO [2-DG, 2-deoxyglucose, reference compound] the “IFN-γ production in CTLs” value ([3]; 2-DG 1 mM or rapamycin 100 nM, 3 days) was “reduction”.
In the case of CC(C)(CNC(=O)c1cccc(-c2noc(C(F)(F)F)n2)c1)c1coc(-c2ccccc2)n1 [TMP-195, reference compound], the “phosphorylation level of S6 ribosomal protein” value [2] was “neither mocetinostat (HDAC class I inhibitor MGCD0103) nor TMP 195 (HDAC class II inhibitor) had a significant effect”.
With CCC(=O)O [propionate, reference compound] the “HDAC activity of CTL-derived cell lysates” value [6] was “strong reduction of HDAC activity” and the “acetylation of histones H3 and H4” value [7] was “increased acetylation”.
